Laboratory results: paper PMC7479175, “Selection of Potent Inhibitors of Soluble Epoxide Hydrolase for Usage in Veterinary Medicine” (Frontiers in Veterinary Science, 2020)

Columns and labels:
Format in all cases: biochemical
Cat sEH [1] = molecular target: T1, Cat sEH (Felis catus, UniProt A0ABI7ZL20); experiment: sEH inhibition potency (IC50), fluorescent assay with CMNPC, partially purified enzyme; details: CMNPC ([S]final = 5 μM) as substrate; average ± standard deviation (n = 3)
Protocol: The IC50 values reported herein were determined using either a fluorescent based assay (CMNPC as substrate) for purified enzyme preparations or a radioactive based assay ([^3H]t-DPPO as substrate) for crude enzyme preparations ([20]). The fluorescent assay was used with the purified proteins. […] The substrate (CMNPC) was then added ([S]final = 5 μM). […] Assays were performed in triplicate.

Horse sEH [2] = molecular target: T2, Horse sEH (Equus caballus, UniProt F7C407); details: CMNPC ([S]final = 5 μM) as substrate; average ± standard deviation (n = 3)
Protocol: The sEH activity from the cat, dog and horse liver was further purified to eliminate contaminating esterase activity that could interfere with the screening fluorescent assay ([16]). The cytosolic fraction was loaded on a Q-Sepharose column (100 mL) equilibrated with sodium phosphate buffer (20 mM pH 7.4). After washing of the bound proteins, the sEH activity was eluted with a step gradient of NaCl (0–1 M). The fractions containing the sEH activity were pooled and concentrated using a Centriprep-30. The concentrates were aliquoted and flash frozen, then kept frozen at −80°C until usage. […] Protein concentration was quantified using the Pierce BCA assay (Pierce, Rockford, IL), using Fraction V bovine serum albumin (BSA) as the calibrating standard.
The IC50 values reported herein were determined using either a fluorescent based assay (CMNPC as substrate) for purified enzyme preparations or a radioactive based assay ([^3H]t-DPPO as substrate) for crude enzyme preparations ([20]). The fluorescent assay was used with the purified proteins. […] The substrate (CMNPC) was then added ([S]final = 5 μM). […] The radioactive […] assay was used with the liver crude extracts. […]

Cat sEH [3] = molecular target: T1, Cat sEH; experiment: Secondary screen (kinetic mode), PHOME substrate; details: read-out: Cat sEH Inhibition (%) S.
Dog sEH = molecular target: T3, Dog sEH (Canis lupus familiaris, UniProt A0A8I3NJL8); experiment: Primary screen (end point) of the sEH inhibitor library, PHOME substrate; details: [I] = 100 nM, primary end-point screening; read-out: Dog sEH Inhibition (%) P.
T3 sequence (A0A8I3NJL8 1-556): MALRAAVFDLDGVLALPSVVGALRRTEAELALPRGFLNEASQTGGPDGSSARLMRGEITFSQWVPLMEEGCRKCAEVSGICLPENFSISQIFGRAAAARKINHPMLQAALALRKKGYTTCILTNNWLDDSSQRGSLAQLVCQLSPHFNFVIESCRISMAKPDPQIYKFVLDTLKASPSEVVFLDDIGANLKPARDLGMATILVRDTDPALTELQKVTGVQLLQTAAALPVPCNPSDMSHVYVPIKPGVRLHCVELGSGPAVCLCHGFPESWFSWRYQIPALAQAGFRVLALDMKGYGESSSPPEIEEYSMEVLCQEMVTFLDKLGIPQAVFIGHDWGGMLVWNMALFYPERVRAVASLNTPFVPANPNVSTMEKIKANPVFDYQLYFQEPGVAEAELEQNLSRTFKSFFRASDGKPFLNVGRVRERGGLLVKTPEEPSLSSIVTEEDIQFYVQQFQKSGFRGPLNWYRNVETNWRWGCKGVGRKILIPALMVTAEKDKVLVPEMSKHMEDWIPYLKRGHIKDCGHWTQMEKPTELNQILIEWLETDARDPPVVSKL
Protocol: (§1) Primary screening of the library was performed with an inhibitor concentration of 100 nM using PHOME as substrate ([22]). […] The plates were then mixed and incubated at 30°C for 5 min. Across each plate, 30 μL of the working substrate solution (270 μL of 5 mM PHOME solution in DMSO diluted with 3,680 μL of buffer) were added quickly to yield [S]final: 50 μM. Each plate was further incubated at room temperature (horse sEH: 60 min; cat sEH: 45 min; dog sEH: 30 min).

Cat sEH [4] = molecular target: T1, Cat sEH; experiment: as above; details: read-out: Cat sEH Inhibition (%) P.
Protocol: as §1

Horse sEH [5] = molecular target: T2, Horse sEH; experiment: as above; details: [I] = 100 nM, primary end-point screening; read-out: Horse sEH Inhibition (%) P.
Protocol: as §1

Horse sEH [6] = molecular target: T2, Horse sEH; experiment: Secondary screen (kinetic mode), PHOME substrate; details: [I] = 100 nM, secondary kinetic mode screening; read-out: Horse sEH Inhibition (%) S.
[7] = molecular target: sEH activity from liver cytosol of Cow (Bos taurus, UniProt Q17QK4); experiment: sEH inhibition potency (IC50), radioactive assay with [3H]t-DPPO, liver cytosol; details: [3H]t-DPPO ([S]final = 5 μM) as substrate
Sequence of sEH activity from liver cytosol of Cow (Q17QK4 entry or part of it): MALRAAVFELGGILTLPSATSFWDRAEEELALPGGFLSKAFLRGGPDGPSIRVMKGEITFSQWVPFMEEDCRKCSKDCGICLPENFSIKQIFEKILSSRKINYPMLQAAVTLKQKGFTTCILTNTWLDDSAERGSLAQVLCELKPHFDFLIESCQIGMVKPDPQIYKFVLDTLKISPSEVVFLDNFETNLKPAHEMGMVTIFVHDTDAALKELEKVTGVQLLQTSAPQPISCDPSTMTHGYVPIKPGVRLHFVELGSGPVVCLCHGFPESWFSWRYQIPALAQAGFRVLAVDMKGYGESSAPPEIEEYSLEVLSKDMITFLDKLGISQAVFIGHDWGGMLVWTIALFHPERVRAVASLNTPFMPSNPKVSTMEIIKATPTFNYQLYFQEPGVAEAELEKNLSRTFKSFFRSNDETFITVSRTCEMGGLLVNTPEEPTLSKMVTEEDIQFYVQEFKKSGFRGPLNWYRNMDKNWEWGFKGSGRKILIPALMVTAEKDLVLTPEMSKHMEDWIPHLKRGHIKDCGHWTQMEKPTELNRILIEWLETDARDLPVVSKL

T1 sequence (A0ABI7ZL20 entry or part of it): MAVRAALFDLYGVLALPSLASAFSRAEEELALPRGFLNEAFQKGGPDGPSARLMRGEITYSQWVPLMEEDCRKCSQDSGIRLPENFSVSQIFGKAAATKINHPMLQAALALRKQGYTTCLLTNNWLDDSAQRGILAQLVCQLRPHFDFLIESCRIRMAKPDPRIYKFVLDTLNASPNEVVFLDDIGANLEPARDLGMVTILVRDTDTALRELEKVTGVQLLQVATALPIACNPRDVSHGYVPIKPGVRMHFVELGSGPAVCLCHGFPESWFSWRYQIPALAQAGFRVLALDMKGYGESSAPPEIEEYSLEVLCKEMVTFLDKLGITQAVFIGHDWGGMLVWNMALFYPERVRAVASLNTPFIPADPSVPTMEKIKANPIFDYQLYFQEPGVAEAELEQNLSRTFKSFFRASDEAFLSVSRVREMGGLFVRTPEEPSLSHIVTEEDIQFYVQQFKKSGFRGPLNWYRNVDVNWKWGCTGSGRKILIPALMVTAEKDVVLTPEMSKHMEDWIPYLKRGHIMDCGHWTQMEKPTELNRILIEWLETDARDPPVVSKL
T2 sequence (F7C407 entry or part of it): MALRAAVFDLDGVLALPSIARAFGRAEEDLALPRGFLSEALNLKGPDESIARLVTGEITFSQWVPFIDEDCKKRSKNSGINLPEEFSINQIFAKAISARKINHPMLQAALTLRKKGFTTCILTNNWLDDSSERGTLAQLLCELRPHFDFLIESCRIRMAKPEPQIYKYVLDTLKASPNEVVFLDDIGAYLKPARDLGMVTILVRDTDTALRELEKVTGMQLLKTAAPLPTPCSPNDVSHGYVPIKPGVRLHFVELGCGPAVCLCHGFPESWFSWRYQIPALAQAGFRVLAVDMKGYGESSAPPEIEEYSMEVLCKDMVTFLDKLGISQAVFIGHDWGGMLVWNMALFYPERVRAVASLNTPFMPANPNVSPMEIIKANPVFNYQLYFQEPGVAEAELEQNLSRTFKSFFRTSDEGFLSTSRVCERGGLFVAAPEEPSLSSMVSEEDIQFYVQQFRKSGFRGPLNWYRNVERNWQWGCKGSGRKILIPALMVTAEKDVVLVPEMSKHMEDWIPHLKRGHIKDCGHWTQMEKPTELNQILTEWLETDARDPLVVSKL

## N#CNC(=O)CCCCCCCCCCCNC(=O)NC12CC3CC(CC(C3)C1)C2 [1,845]
Cat sEH [1]
  IC50: 400 ± 10 pM
Horse sEH [2]
  IC50: 400 ± 10 pM
Cat sEH [3]
  inhibition at 0.1 µM: 104%
Dog sEH
  inhibition at 0.1 µM: 95%
Cat sEH [4]
  inhibition at 0.1 µM: 101%
Horse sEH [5]
  inhibition at 0.1 µM: 100%
Horse sEH [6]
  inhibition at 0.1 µM: 88%
[7]
  IC50: 11 nM

## O=C(NCCCCOc1ccc(F)cc1)NC12CC3CC(CC(C3)C1)C2 [1,707]
Cat sEH [1]
  IC50: 500 ± 20 pM
Horse sEH [2]
  IC50: 500 ± 30 pM
Cat sEH [3]
  inhibition at 0.1 µM: 99%
Dog sEH
  inhibition at 0.1 µM: < 90%
Cat sEH [4]
  inhibition at 0.1 µM: 94%
Horse sEH [5]
  inhibition at 0.1 µM: 101%
Horse sEH [6]
  inhibition at 0.1 µM: 87%
[7]
  IC50: 7 nM
